Results published in ChEMBL document CHEMBL5705896 (ACS Chem Biol, 2013).
pIC50, pKi: −log10 of the molar value. Calls of active or inactive are those of the source. The rule behind the calls is not given here.

Legend:
[1] = target: Sodium-dependent noradrenaline transporter (Homo sapiens, UniProt P23975)
Description: Binding affinity to NET (unknown origin) assessed as inhibition constant

DB [2] = experiment: Antiproliferative activity against human DB cells assessed as reduction in cell viability at 5000 nM by cell proliferation assay relative to control; assay type: functional
[3] = target: Protein arginine N-methyltransferase 3 (Homo sapiens, UniProt O60678); experiment: Inhibition of PRMT3 (unknown origin) using [3H-SAM] as substrate incubated for 1 hr by scintillation proximity assay
[4] = target: Serine/threonine-protein kinase Nek2 (Homo sapiens) (UniProt P51955); experiment: Inhibition of full length human N-terminal his-tagged NEK2 (1 to 445 end residues) expressed in baculovirus expression system using CDK7 peptide as substrate at 10 uM by mobility shift assay relative to control
Sequence of Serine/threonine-protein kinase Nek2 (Homo sapiens) (P51955 whole entry, the tested form may be a part): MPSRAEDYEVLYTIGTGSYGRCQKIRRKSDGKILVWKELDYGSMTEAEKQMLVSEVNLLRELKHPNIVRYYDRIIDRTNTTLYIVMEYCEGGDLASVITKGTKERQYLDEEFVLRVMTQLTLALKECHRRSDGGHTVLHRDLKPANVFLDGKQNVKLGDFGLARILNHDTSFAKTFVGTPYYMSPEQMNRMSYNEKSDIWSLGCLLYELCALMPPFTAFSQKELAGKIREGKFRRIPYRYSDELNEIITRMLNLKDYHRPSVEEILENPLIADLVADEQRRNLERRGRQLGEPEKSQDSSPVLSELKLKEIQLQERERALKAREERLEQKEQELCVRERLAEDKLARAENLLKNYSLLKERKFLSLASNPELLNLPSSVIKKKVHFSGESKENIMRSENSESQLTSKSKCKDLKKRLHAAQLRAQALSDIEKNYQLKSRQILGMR

[5] = target: Death-associated protein kinase 1 (Homo sapiens) (UniProt P53355); experiment: Inhibition of human catalytic domain N-terminal GST tagged DAPK1 (1 to 289 residues) expressed in baculovirus expression system using DAPK1tide as substrate at 10 uM by mobility shift assay relative to control
Sequence of Death-associated protein kinase 1 (Homo sapiens) (P53355 whole entry, looked up, the tested form may be a part): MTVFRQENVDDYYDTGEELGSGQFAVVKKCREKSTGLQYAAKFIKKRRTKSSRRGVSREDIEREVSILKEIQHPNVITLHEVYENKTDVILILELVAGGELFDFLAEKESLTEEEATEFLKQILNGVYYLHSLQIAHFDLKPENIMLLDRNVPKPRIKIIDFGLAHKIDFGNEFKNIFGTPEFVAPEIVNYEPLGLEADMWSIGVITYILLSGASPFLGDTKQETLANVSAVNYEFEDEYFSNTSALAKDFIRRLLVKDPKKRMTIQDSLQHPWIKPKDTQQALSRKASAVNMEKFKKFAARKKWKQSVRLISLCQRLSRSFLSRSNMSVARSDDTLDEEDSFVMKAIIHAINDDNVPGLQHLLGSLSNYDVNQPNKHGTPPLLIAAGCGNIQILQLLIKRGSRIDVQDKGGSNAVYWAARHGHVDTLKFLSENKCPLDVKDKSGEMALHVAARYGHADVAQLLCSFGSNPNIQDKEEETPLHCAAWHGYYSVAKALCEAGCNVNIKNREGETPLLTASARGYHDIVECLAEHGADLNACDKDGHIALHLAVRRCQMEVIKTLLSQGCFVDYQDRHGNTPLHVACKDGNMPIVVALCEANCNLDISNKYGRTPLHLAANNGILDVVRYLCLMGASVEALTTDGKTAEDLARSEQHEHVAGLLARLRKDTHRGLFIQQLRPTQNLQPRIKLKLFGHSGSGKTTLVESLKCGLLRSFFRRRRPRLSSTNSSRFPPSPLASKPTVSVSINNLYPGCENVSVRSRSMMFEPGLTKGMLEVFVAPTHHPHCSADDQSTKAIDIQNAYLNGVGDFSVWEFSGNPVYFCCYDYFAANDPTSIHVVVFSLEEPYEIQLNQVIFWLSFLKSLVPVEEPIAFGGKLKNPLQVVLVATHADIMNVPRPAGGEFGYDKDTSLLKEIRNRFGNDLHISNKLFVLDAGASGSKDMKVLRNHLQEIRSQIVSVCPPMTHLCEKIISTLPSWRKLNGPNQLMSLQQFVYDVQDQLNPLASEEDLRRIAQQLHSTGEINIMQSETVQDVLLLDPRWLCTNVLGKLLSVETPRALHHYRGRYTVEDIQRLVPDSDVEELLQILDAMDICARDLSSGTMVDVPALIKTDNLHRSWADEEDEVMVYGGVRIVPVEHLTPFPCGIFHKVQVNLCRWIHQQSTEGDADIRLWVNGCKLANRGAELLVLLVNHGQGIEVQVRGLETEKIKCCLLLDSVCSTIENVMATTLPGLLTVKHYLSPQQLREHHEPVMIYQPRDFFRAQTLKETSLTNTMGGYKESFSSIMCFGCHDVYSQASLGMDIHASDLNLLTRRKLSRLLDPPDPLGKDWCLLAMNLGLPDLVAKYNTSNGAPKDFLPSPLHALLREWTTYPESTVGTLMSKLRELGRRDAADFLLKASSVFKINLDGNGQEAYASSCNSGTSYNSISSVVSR

[6] = target: Sodium-dependent dopamine transporter (Homo sapiens) (UniProt Q01959); experiment: Inhibition of DAT (unknown origin) at 10 uM by radioligand binding assay relative to control
Sequence of Sodium-dependent dopamine transporter (Homo sapiens) (Q01959 whole entry): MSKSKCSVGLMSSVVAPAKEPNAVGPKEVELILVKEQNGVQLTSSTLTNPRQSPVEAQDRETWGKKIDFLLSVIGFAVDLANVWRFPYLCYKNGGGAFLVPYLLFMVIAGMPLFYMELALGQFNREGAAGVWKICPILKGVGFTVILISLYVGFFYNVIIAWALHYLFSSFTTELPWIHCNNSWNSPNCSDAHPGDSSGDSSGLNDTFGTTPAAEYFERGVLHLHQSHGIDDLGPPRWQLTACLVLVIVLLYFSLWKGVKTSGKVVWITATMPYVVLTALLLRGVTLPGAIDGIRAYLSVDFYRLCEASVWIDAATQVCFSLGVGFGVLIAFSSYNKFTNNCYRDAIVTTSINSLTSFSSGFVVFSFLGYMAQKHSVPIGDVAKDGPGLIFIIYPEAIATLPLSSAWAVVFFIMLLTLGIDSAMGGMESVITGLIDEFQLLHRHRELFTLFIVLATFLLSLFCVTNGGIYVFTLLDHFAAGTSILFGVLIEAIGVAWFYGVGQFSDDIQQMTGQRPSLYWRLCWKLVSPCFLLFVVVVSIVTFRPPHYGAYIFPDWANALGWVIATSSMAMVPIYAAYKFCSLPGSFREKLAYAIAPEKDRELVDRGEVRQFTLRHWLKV

DB [7] = experiment: Downregulation of H3K27me3 level in human DB cells at 3000 nM measured after 3 days; assay type: functional, cell-based; conditions: time 3.0 day
[8] = target: Hepatocyte growth factor receptor (Homo sapiens) (UniProt P08581); experiment: Inhibition of human cytoplasmic domain N-terminal GST tagged MET (956 to 1390 end residues) expressed in baculovirus expression system using Srctide as substrate at 10 uM by mobility shift assay relative to control
[9] = target: 5-hydroxytryptamine receptor 7 (Homo sapiens) (UniProt P34969); experiment: Inhibition of 5-HT7 receptor (unknown origin) at 10 uM by radioligand binding assay relative to control
Sequence of 5-hydroxytryptamine receptor 7 (Homo sapiens) (P34969 whole entry): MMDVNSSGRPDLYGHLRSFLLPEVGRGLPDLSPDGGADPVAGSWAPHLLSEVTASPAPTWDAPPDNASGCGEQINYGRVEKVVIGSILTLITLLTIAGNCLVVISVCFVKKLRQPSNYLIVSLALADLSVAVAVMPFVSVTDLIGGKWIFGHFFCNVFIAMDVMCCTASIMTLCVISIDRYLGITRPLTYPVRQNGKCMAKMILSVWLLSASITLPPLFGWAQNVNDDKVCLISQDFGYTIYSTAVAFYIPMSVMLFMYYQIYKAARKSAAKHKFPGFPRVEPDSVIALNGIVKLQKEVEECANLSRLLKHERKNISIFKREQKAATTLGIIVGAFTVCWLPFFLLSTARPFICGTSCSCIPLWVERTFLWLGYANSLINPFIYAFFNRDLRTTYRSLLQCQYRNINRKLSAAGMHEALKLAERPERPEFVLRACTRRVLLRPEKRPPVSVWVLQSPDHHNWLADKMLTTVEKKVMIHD

[10] = Inhibition of full length human N-terminal his tagged ABL (2 to 1130 end residues) expressed in baculovirus expression system using ABLtide as substrate at 10 uM by mobility shift assay relative to control; conditions: condition weaver syndrome
[11] = target: Serine/threonine-protein kinase D2 (Homo sapiens) (UniProt Q9BZL6); experiment: Inhibition of full length human N-terminal GST tagged PKD2 (1 to 878 end residues) expressed in baculovirus expression system using GS as peptide at 10 uM by mobility shift assay relative to control
[12] = target: 5-hydroxytryptamine receptor 5A (Homo sapiens) (UniProt P47898); experiment: Inhibition of 5-HT5A receptor (unknown origin) at 10 uM by radioligand binding assay relative to control
Sequence of 5-hydroxytryptamine receptor 5A (Homo sapiens) (P47898 whole entry): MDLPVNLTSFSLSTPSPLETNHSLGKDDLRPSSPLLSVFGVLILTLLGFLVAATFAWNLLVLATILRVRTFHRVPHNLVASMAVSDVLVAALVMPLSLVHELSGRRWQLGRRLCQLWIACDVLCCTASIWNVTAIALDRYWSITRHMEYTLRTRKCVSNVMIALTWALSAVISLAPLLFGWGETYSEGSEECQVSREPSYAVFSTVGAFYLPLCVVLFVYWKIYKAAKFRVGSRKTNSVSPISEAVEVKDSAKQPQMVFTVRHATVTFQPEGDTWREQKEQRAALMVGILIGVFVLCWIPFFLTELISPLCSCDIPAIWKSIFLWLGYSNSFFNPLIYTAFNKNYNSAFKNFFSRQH

Homo sapiens = organism: Homo sapiens; experiment: Inhibition of BZP (unknown origin) at 10 uM by radioligand binding assay relative to control
[13] = target: Histone-lysine N-methyltransferase EHMT2 (Homo sapiens, UniProt Q96KQ7); experiment: Inhibition of G9a (unknown origin) using [3H-SAM] as substrate incubated for 1 hr by scintillation proximity assay
[14] = target: Epidermal growth factor receptor (Homo sapiens) (UniProt P00533); experiment: Inhibition of human cytoplasmic domain N-terminal GST tagged EGFR (669 to 1210 end residues) expressed in baculovirus expression system using Srctide as substrate at 10 uM by mobility shift assay relative to control
[15] = target: 5-hydroxytryptamine receptor 1B (Homo sapiens) (UniProt P28222); experiment: Inhibition of 5-HT1B receptor (unknown origin) at 10 uM by radioligand binding assay relative to control
[16] = target: DNA (cytosine-5)-methyltransferase 1 (Homo sapiens, UniProt P26358); experiment: Inhibition of DNMT1 (unknown origin) using hemimethylated dsDNA as substrate incubated for 1 hr by scintillation proximity assay
[17] = target: Interleukin-1 receptor-associated kinase 4 (Homo sapiens) (UniProt Q9NWZ3); experiment: Inhibition of full length human N-terminal GST tagged IRAK4 (1 to 460 end residues) expressed in baculovirus expression system using IRAK1 as substrate at 10 uM by mobility shift assay relative to control
Sequence of Interleukin-1 receptor-associated kinase 4 (Homo sapiens) (Q9NWZ3 whole entry): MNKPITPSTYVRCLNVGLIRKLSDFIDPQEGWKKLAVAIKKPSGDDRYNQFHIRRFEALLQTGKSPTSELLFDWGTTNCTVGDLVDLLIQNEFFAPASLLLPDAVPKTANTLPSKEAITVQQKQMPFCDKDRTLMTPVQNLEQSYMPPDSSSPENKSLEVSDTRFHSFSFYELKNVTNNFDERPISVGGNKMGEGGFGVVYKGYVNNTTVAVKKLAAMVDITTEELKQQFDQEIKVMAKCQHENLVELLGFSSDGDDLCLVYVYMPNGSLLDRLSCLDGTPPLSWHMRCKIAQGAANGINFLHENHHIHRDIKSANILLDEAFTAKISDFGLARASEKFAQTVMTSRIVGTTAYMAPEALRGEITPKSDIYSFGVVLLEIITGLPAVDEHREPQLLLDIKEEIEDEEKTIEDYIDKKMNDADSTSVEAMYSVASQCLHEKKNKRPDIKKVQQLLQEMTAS

[18] = target: Sigma intracellular receptor 2 (Homo sapiens, UniProt Q5BJF2); experiment: Inhibition of Sigma2 receptor (unknown origin) at 10 uM by radioligand binding assay relative to control
Sequence of Sigma intracellular receptor 2 (Q5BJF2 whole entry): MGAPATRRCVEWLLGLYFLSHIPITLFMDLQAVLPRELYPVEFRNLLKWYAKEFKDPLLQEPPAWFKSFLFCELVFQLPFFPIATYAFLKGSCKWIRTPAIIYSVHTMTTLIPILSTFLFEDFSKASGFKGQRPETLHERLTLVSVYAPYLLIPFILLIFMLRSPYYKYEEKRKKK

[19] = target: Histone-lysine N-methyltransferase SETD7 (Homo sapiens, UniProt Q8WTS6); experiment: Inhibition of SETD7 (unknown origin) using [3H-SAM] as substrate incubated for 1 hr by scintillation proximity assay
[20] = target: Beta-2 adrenergic receptor (Homo sapiens) (UniProt P07550); experiment: Inhibition of Beta2 receptor (unknown origin) at 10 uM by radioligand binding assay relative to control
[21] = target: Protein-tyrosine kinase 2-beta (Homo sapiens) (UniProt Q14289); experiment: Inhibition of full length human N-terminal GST tagged PYK2 (1 to 967 end residues) expressed in baculovirus expression system using Blk/lyntide as substrate at 10 uM by mobility shift assay relative to control
Sequence of Protein-tyrosine kinase 2-beta (Homo sapiens) (Q14289 whole entry, looked up): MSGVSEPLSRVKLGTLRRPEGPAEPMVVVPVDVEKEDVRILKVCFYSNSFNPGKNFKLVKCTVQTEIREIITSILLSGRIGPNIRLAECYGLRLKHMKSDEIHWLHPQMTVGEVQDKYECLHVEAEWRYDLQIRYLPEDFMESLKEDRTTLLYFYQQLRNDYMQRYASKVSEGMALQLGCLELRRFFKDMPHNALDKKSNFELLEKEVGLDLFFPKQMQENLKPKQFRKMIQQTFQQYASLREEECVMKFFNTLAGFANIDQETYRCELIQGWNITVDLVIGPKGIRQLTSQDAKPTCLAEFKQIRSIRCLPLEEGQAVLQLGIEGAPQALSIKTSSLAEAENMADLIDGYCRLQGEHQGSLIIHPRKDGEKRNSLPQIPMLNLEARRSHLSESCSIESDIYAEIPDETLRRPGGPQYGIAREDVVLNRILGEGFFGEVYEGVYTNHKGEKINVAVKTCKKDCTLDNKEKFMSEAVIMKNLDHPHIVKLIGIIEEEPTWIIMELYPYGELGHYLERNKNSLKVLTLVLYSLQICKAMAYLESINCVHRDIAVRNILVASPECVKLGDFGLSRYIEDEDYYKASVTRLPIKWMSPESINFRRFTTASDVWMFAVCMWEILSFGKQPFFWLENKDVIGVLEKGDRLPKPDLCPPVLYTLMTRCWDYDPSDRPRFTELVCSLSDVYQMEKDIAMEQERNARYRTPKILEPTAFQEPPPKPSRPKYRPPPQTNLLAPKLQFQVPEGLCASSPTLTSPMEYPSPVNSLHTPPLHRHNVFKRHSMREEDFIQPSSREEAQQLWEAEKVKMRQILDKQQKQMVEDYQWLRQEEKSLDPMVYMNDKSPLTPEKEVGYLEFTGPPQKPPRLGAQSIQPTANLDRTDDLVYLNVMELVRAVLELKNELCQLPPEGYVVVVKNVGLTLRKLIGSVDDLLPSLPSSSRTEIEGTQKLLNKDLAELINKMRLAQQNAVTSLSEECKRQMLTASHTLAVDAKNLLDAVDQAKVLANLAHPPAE

[22] = target: D(2) dopamine receptor (Homo sapiens) (UniProt P14416); experiment: Inhibition of dopamine D2 receptor (unknown origin) at 10 uM by radioligand binding assay relative to control
[23] = target: Mitogen-activated protein kinase kinase kinase kinase 4 (Homo sapiens) (UniProt O95819); experiment: Inhibition of human catalytic domain N-terminal GST tagged HGK (1 to 328 residues) expressed in baculovirus expression system using moesin-derived peptide as substrate at 10 uM by mobility shift assay relative to control
[24] = target: Angiopoietin-1 receptor (Homo sapiens) (UniProt Q02763); experiment: Inhibition of human cytoplasmic domain N-terminal GST tagged TIE2 (771 to 1124 end residues) expressed in baculovirus expression system using Blk/lyntide as substrate at 10 uM by mobility shift assay relative to control
[25] = target: Tyrosine-protein kinase CSK (Homo sapiens) (UniProt P41240); experiment: Inhibition of full length human N-terminal GST tagged CSK (1 to 450 end residues) expressed in baculovirus expression system using Srctide as substrate at 10 uM by mobility shift assay relative to control
[26] = target: D(4) dopamine receptor (Homo sapiens) (UniProt P21917); experiment: Inhibition of dopamine D4 receptor (unknown origin) at 10 uM by radioligand binding assay relative to control
[27] = target: Testis-specific serine/threonine-protein kinase 1 (Homo sapiens) (UniProt Q9BXA7); experiment: Inhibition of full length human N-terminal GST tagged TSSK1 (1 to 367 end residues) expressed in baculovirus expression system using GS as peptide at 10 uM by mobility shift assay relative to control
[28] = target: Histone-lysine N-methyltransferase SETDB1 (Homo sapiens, UniProt Q15047); experiment: Inhibition of SETDB1 (unknown origin) using [3H-SAM] as substrate incubated for 1 hr by scintillation proximity assay
[29] = target: Serine/threonine-protein kinase Sgk1 (Homo sapiens) (UniProt O00141); experiment: Inhibition of truncated human N-terminal GST-tagged SGK (61 to 431 end residues) expressed in baculovirus expression system using SGKtide as substrate at 10 uM by mobility shift assay relative to control

Q: What does the source list for `CCCc1cc(C)[nH]c(=O)c1CNC(=O)c1cc(-c2ccc(N3CCN(C(C)C)CC3)nc2)cc2c1cnn2C(C)C`?
A: pKi [1]: 5.82; Activity (DB [2]): 100%; pIC50 [3]: < 4.00; inhibition [4]: -4%; inhibition [5]: -4%; inhibition [6]: 36%; Activity (DB [7]): Active; inhibition [8]: -3%; inhibition [9]: -4%; inhibition at 10 µM [10]: -4%; inhibition [11]: 5%; inhibition [12]: 10%; inhibition (Homo sapiens): -6%; pIC50 [13]: < 4.00; inhibition [14]: -3%; inhibition [15]: 44%; pIC50 [16]: < 4.00; inhibition [17]: -7%; inhibition [18]: 93%; pIC50 [19]: < 4.00; inhibition [20]: 14%; inhibition [21]: -5%; inhibition [22]: 9%; inhibition [23]: -2%; inhibition [24]: -6%; inhibition [25]: -4%; inhibition [26]: 2%; inhibition [27]: 5%; pIC50 [28]: < 4.00; inhibition [29]: -3%
